Molecular target: T1, intracellular domain of DDR1 (Homo sapiens, UniProt Q08345)
T1 construct: the intracellular domain of DDR1 (in a final concentration of 5 ng/μL) (Carna Biosciences, Inc.); purchased Carna Biosciences, Inc
Test: Evaluation of DDR1 inhibition activity with HTRF KinEASE-TK kit
Assay type: biochemical
Conditions: DDR1 intracellular domain 5 ng/μL, ATP 25 μm/L, TK Substrate-biotin 1000 nmol/L, room temperature, one hour
Protocol: The DDR1 inhibition activity in the compounds of Examples 1 to 80 was evaluated with HTRF® KinEASE-TK kit (Cisbio Bioassays).
Each test substance was dissolved in dimethyl sulfoxide and then used for the evaluation as described below. Moreover, each of test substances and reagents was diluted in the kinase buffer (Cisbio Bioassays) prepared by adding thereto MgCl2, MnCl2, DTT, and the Supplemental Enzyme buffer (Cisbio Bioassays) to concentrations of 5 mmol/L, 0.5 mmol/L, 0.25 mmol/L, and 50 nmol/L, respectively, and then used. Each test substance (in DMSO in a final concentration of 1%), the intracellular domain of DDR1 (in a final concentration of 5 ng/μL) (Carna Biosciences, Inc.), the phosphate donor ATP (in final concentration of 25 μm/L) (Sigma), and the substrate TK Substrate-biotin (in a final concentration of 1000 nmol/L) (Cisbio Bioassays) were added to a 384-well black plate (Corning) and allowed to react at room temperature for one hour. After completion of the reaction, the TK Antibody-Cryptate (Cisbio Bioassays) and the Streptavidin-XL665 (Cisbio Bioassays) were added thereto and allowed to react at room temperature for one hour. In addition, the plate was provided with a well to which a test substance was not added, and with a well to which a test substance and the intracellular domain of DDR1 were […].
The fluorescence intensity in each well was measured using a multi-label counter (Envision, PerkinElmer; excitation wavelength: 320 nm, measurement wavelength: 665 nm and 620 nm) to calculate a ratio (the fluorescence intensity at 665 nm/the fluorescence intensity at 620 nm). The inhibition rate (%) of a test substance at each concentration was calculated based on the formula below: Inhibition rate (%)=([the ratio obtained from the well containing no test substance]−[the ratio from a well containing a test substance])/([the ratio obtained from the well containing no test substance]−[the ratio obtained from the well containing no intracellular domain of DDR1 and no test substance])×100.
The calculated inhibition rates were fitted to a sigmoidal dose-response curve by regression analysis using the Prism 5.04 (GraphPad Software, Inc.) to calculate the IC50 value of the test substance.

T1 sequence (Q08345 439-913 limits assumed): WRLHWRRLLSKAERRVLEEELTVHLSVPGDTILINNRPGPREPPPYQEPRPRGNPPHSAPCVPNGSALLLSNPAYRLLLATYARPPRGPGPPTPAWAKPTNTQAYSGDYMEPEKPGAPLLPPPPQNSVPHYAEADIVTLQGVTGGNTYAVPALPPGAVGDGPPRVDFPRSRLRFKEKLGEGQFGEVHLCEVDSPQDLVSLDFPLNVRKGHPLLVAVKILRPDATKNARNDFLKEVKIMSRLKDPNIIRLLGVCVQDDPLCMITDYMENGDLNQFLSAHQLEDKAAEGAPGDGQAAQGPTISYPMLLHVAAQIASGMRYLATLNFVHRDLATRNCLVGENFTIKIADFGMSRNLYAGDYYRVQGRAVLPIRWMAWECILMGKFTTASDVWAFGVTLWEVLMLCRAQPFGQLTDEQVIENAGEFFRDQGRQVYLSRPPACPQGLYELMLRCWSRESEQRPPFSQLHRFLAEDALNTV

Row | Molecule | IC50 [nM]
1 | 1-(2-(oxetan-3-yloxy)-5-(trifluoromethoxy)phenyl)-3-(trans-4-(pyridin-4-ylmethoxy)cyclohexyl)urea [Example 30] | 50.4
2 | COc1ccc(OC(F)(F)F)cc1NC(=O)N[C@H]1CC[C@H](Oc2ccnc(N3CCOCC3)n2)CC1 [Example 1, 1-(2-methoxy-5-(trifluoromethoxy)phenyl)-3-(trans-4-((2-morpholinopyrimidin-4-yl)oxy)cyclohexyl)urea] | 476
3 | COc1ccc(OC(F)(F)F)cc1NC(=O)N[C@H]1CC[C@H](Oc2ccncn2)CC1 [Example 2, 1-(2-methoxy-5-(trifluoromethoxy)phenyl)-3-(trans-4-(pyrimidin-4-yloxy)cyclohexyl)urea] | 229
4 | CNc1nccc(O[C@H]2CC[C@H](NC(=O)Nc3cc(OC(F)(F)F)ccc3OC)CC2)n1 [Example 3, 1-(2-methoxy-5-(trifluoromethoxy)phenyl)-3-(trans-4-((2-(methylamino)pyrimidin-4-yl)oxy)cyclohexyl)urea] | 141
5 | COc1ccc(S(F)(F)(F)(F)F)cc1NC(=O)N[C@H]1CC[C@H](Oc2ccnc(N3CCOCC3)n2)CC1 [Example 4, 1-(2-methoxy-5-(pentafluorosulfanyl)phenyl)-3-(trans-4-((2-morpholinopyrimidin-4-yl)oxy)cyclohexyl)urea] | 427
6 | COc1c(CO)cc(S(F)(F)(F)(F)F)cc1NC(=O)N[C@H]1CC[C@H](Oc2ccnc(N3CCOCC3)n2)CC1 [Example 5, 1-(3-(hydroxymethyl)-2-methoxy-5-(pentafluorosulfanyl)phenyl)-3-(trans-4-((2-morpholinopyrimidin-4-yl)oxy)cyclohexyl)urea] | 65.9
7 | COc1c(CO)cc(C(F)(F)F)cc1NC(=O)N[C@H]1CC[C@H](Oc2ccnc(N3CCOCC3)n2)CC1 [Example 6, 1-(3-(hydroxymethyl)-2-methoxy-5-(trifluoromethyl)phenyl)-3-(trans-4-((2-morpholinopyrimidin-4-yl)oxy)cyclohexyl)urea] | 62.2
8 | O=C(Nc1cc(C(F)(F)F)ccc1OC1COC1)N[C@H]1CC[C@H](Oc2ccnc(N3CCOCC3)n2)CC1 [Example 7, 1-(trans-4-((2-morpholinopyrimidin-4-yl)oxy)cyclohexyl)-3-(2-(oxetan-3-yloxy)-5-(trifluoromethyl)phenyl)urea] | 111
9 | O=C1CN(c2ccc(C(F)(F)F)cc2NC(=O)N[C@H]2CC[C@H](Oc3ccnc(N4CCOCC4)n3)CC2)CCN1 [Example 8, 1-(trans-4-((2-morpholinopyrimidin-4-yl)oxy)cyclohexyl)-3-(2-(3-oxopiperazin-1-yl)-5-(trifluoromethyl)phenyl)urea] | 46.3
10 | COc1ccc(OC(F)(F)F)cc1NC(=O)N[C@H]1CC[C@H](Oc2ncccn2)CC1 [Example 9, 1-(2-methoxy-5-(trifluoromethoxy)phenyl)-3-(trans-4-(pyrimidin-2-yloxy)cyclohexyl)urea] | 349
11 | COc1ccc(S(F)(F)(F)(F)F)cc1NC(=O)N[C@H]1CC[C@H](Oc2ncccn2)CC1 [Example 10, 1-(2-methoxy-5-(pentafluorosulfanyl)phenyl)-3-(trans-4-(pyrimidin-2-yloxy)cyclohexyl)urea] | 167
12 | COc1ccc(C(F)(F)F)cc1NC(=O)N[C@H]1CC[C@H](Oc2ncccn2)CC1 [Example 11, 1-(2-methoxy-5-(trifluoromethyl)phenyl)-3-(trans-4-(pyrimidin-2-yloxy)cyclohexyl)urea] | 384
13 | COc1c(CO)cc(C(F)(F)F)cc1NC(=O)N[C@H]1CC[C@H](Oc2ncccn2)CC1 [Example 12, 1-(3-(hydroxymethyl)-2-methoxy-5-(trifluoromethyl)phenyl)-3-(trans-4-(pyrimidin-2-yloxy)cyclohexyl)urea] | 96.7
14 | O=C(Nc1cc(C(F)(F)F)ccc1OC1COC1)N[C@H]1CC[C@H](Oc2ncccn2)CC1 [Example 13, 1-(2-(oxetan-3-yloxy)-5-(trifluoromethyl)phenyl)-3-(trans-4-(pyrimidin-2-yloxy)cyclohexyl)urea] | 57.6
15 | O=C(Nc1cc(S(F)(F)(F)(F)F)ccc1OC1COC1)N[C@H]1CC[C@H](Oc2ncccn2)CC1 [Example 14, 1-(2-(oxetan-3-yloxy)-5-(pentafluorosulfanyl)phenyl)-3-(trans-4-(pyrimidin-2-yloxy)cyclohexyl)urea] | 76.7
16 | O=C1CN(c2ccc(C(F)(F)F)cc2NC(=O)N[C@H]2CC[C@H](Oc3ncccn3)CC2)CCN1 [Example 15, 1-(2-(3-oxopiperazin-1-yl)-5-(trifluoromethyl)phenyl)-3-(trans-4-(pyrimidin-2-yloxy)cyclohexyl)urea] | 72.4

Row | Molecule | IC50 [nM]
17 | COc1ccc(OC(F)(F)F)cc1NC(=O)N[C@H]1CC[C@H](Oc2ccc(-c3ccccc3)nn2)CC1 [Example 16] | 963
18 | COc1c(CO)cc(C(F)(F)F)cc1NC(=O)N[C@H]1CC[C@H](Oc2ccc(-c3ccccc3)nn2)CC1 [Example 17, 1-(3-(hydroxymethyl)-2-methoxy-5-(trifluoromethyl)phenyl)-3-(4-((6-phenylpyridazin-3-yl)oxy)cyclohexyl)urea] | 189
19 | COc1ccc(OC(F)(F)F)cc1NC(=O)N[C@H]1CC[C@H](Oc2cccnc2)CC1 [Example 18, 1-(2-methoxy-5-(trifluoromethoxy)phenyl)-3-(trans-4-(pyridin-3-yloxy)cyclohexyl)urea] | 162
20 | COc1ccc(OC(F)(F)F)cc1NC(=O)N[C@H]1CC[C@H](OCc2ccncc2)CC1 [Example 19, 1-(2-methoxy-5-(trifluoromethoxy)phenyl)-3-(trans-4-(pyridin-4-ylmethoxy)cyclohexyl)urea] | 46.2
21 | O=C(Nc1cc(CO)cc(C(F)(F)F)c1)N[C@H]1CC[C@H](OCc2ccncc2)CC1 [Example 20, 1-(3-(hydroxymethyl)-5-(trifluoromethyl)phenyl)-3-(trans-4-(pyridin-4-ylmethoxy)cyclohexyl)urea] | 114
22 | COc1c(CO)cc(C(F)(F)F)cc1NC(=O)N[C@H]1CC[C@H](OCc2ccncc2)CC1 [Example 21, 1-(3-(hydroxymethyl)-2-methoxy-5-(trifluoromethyl)phenyl)-3-(trans-4-(pyridin-4-ylmethoxy)cyclohexyl)urea] | 39.3
23 | O=C(Nc1cccc(C(F)(F)F)c1)N[C@H]1CC[C@H](OCc2ccncc2)CC1 [Example 22, 1-(trans-4-(pyridin-4-ylmethoxy)cyclohexyl)-3-(3-(trifluoromethyl)phenyl)urea] | 234
24 | O=C(Nc1ccc(CO)c(C(F)(F)F)c1)N[C@H]1CC[C@H](OCc2ccncc2)CC1 [Example 23, 1-(4-(hydroxymethyl)-3-(trifluoromethyl)phenyl)-3-(trans-4-(pyridin-4-ylmethoxy)cyclohexyl)urea] | 402
25 | COc1ccc(C(F)(F)F)cc1NC(=O)N[C@H]1CC[C@H](OCc2ccncc2)CC1 [Example 24, 1-(2-methoxy-5-(trifluoromethyl)phenyl)-3-(trans-4-(pyridin-4-ylmethoxy)cyclohexyl)urea] | 124
26 | Cc1ccc(C(F)(F)F)cc1NC(=O)N[C@H]1CC[C@H](OCc2ccncc2)CC1 [Example 25, 1-(2-methyl-5-(trifluoromethyl)phenyl)-3-(trans-4-(pyridin-4-ylmethoxy)cyclohexyl)urea] | 421
27 | COc1ccc(S(F)(F)(F)(F)F)cc1NC(=O)N[C@H]1CC[C@H](OCc2ccncc2)CC1 [Example 26, 1-(2-methoxy-5-(pentafluorosulfanyl)phenyl)-3-(trans-4-(pyridin-4-ylmethoxy)cyclohexyl)urea] | 82.7
28 | O=C(Nc1cc(C(F)(F)F)ccc1F)N[C@H]1CC[C@H](OCc2ccncc2)CC1 [Example 27, 1-(2-fluoro-5-(trifluoromethyl)phenyl)-3-(trans-4-(pyridin-4-ylmethoxy)cyclohexyl)urea] | 258
29 | O=C(Nc1cc(C(F)(F)F)ccc1N1CCOCC1)N[C@H]1CC[C@H](OCc2ccncc2)CC1 [Example 28, 1-(2-morpholino-5-(trifluoromethyl)phenyl)-3-(trans-4-(pyridin-4-ylmethoxy)cyclohexyl)urea] | 103
30 | O=C(Nc1cc(C(F)(F)F)ccc1Cl)N[C@H]1CC[C@H](OCc2ccncc2)CC1 [Example 29, 1-(2-chloro-5-(trifluoromethyl)phenyl)-3-(trans-4-(pyridin-4-ylmethoxy)cyclohexyl)urea] | 133
31 | O=C(Nc1cc(C(F)(F)F)ccc1OC1CNC1)N[C@H]1CC[C@H](OCc2ccncc2)CC1 [Example 31, 1-(2-(azetidin-3-yloxy)-5-(trifluoromethyl)phenyl)-3-(trans-4-(pyridin-4-ylmethoxy)cyclohexyl)urea] | 76.7
